{"source": "patent US20040171650A1", "about": "“Novel anthelmintic and insecticidal compositions” (priority 2003, published 2004)", "data": [{"system": "Ascaris suum muscle strip", "assay": "Ascaris suum muscle tension assay", "conditions": "30 uM final bath concentration; 2 cm Ascaris suum muscle strip in Ascaris Ringers Solution, 37°", "description": "Compounds of the invention were evaluated in an allatostatin receptor binding assay as has been described (Larsen, M. J. et. al., Biochemical and Biophysical […] Communications, 2001, 286, 895-901; Lowery, D. E., et. al., 2001, WO 01/31005). Anthelmintic activity was evaluated in a Ascaris suum muscle tension assay as has been described (Bowman, J. W., et. al., J Neurophys., 1995, 74(5), 1880-8; Davis, R. E., et. al., J. Neurosci., 1989, 9, 403-414). As previously described (Bowman, op.cit.), a 2 cm segment of Ascaris suum muscle strip was suspended in a muscle bath filled with 37° Ascaris Ringers Solution {ARS; in mM: KCl (24.5), CaCl2 (5.9), MgCl2 (4.9), NaCl (4), NaC2 H3O2 (125) and Tris (5); pH 7.4}. The preparations were initially set at 12-15 g of tension and allowed to stabilize for approximately 15-30 minutes before drug treatment. Test compounds were added by pipet to the bath with final concentration of 30 uM reflecting the dilution in the test chamber. Raw data was collected from the BioReportTM program.", "values": [{"smiles": "COc1ccc(C(=O)CSc2nnc(-c3ccncc3)n2-c2ccccc2)cc1", "note": "[Compound 6]", "Activity": "Excitatory"}]}, {"target": "DAR-2 (Drosophila melanogaster, UniProt Q7KRX1)", "sequence (Q7KRX1 entry or part of it)": "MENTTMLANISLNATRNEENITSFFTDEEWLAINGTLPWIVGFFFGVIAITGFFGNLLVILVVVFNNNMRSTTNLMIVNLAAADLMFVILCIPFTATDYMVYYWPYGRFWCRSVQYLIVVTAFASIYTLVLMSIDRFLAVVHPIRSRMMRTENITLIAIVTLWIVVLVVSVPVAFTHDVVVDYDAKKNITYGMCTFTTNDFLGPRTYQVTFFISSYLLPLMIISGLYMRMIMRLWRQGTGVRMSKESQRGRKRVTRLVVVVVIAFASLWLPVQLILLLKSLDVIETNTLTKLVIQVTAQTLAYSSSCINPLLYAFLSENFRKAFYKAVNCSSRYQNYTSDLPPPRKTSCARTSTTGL", "assay": "DAR-2 (allatostatin receptor) calcium response FLIPR assay in transfected CHO cells", "format": "cell-based", "conditions": "CHO cells transfected with DAR-2 DNA; calcium signal (Fluo-3AM, FLIPR)", "description": "Compounds of the invention were evaluated in an allatostatin receptor binding assay as has been described (Larsen, M. J. et. al., Biochemical and Biophysical Reseach Communications, 2001, 286, 895-901; Lowery, D. E., et. al., 2001, WO 01/31005). Anthelmintic activity was evaluated in a Ascaris suum muscle tension assay as has been described (Bowman, J. W., et. al., J Neurophys., 1995, 74(5), 1880-8; Davis, R. E., et. al., J. Neurosci., 1989, 9, 403-414).\nAs previously described (Larsen op.cit.), CHO cells were transfected with the DAR-2 DNA on 10 cm plates ([…]) and were trypsinized 24 h after transfections and were plated at a density of 2×10^4 cells/well in black-walled, 96-well plates and incubated for an additional 24 hrs at 37° C./5% CO2 either with or without pertussis toxin (PTX, 100 ng/ml). On the day of treatment, the media were aspirated, the cells were washed with HBBS/HEPES (Hank's Balanced Salt Solution, supplemented with 10 mM HEPES) and incubated with 4 μM Fluo-3AM in HBSS/HEPES, additionally supplemented with 2.5 mM probenecid to inhibit multi drug resistant pump (0.1 ml/well) for 1 h at 37° C./5% CO2. Plates were washed twice with warm HBSS/HEPES/ probenecid buffer immediately prior to activation of the calcium response and 100 μl buffer/per well was left after the last wash. A calcium response was initiated by the addition of candidate receptor agonist compounds (2× concentration in HBSS/HEPES, 100 μl/well). The DSK-R1/SHEP cells were loaded for 1 h at 37° C./5% CO2 with 4 μM calcium green/0.02% pluronic acid in modified Earle's balanced salt solution containing 4 mM CaCl2 dihydrate, 0.8 mM MgSO4.7H2O, 20 mM NaCl, 20 mM Tris-HEPES, 120 mM N-methyl-D-glucamine/HCl, 5.3 mM KCl, […], and 9 mM Tris base. Fluorescence was measured on a 96-well plate-based fluorescence imaging plate reader (FLIPR) with an argon laser (Molecular Devices, Sunnyvale, Calif.). Basal fluorescence of cells was measured for 20 seconds prior to addition of candidate agonist and the basal fluorescence level was subtracted from the response signal. The calcium signal was measured for approximately 200 seconds with readings every two seconds. Calcium ionophore A23187 was used as a control for non-receptor specific calcium release. […]", "units": {"IC50": "nM"}, "values": [{"smiles": "COc1ccc(C(=O)CSc2nnc(-c3ccncc3)n2-c2ccccc2)cc1", "note": "[Compound 6]", "IC50": 54}, {"smiles": "O=C(CSc1nnc(-c2ccncc2)n1-c1ccccc1)c1ccc(Cl)cc1", "note": "[Compound 7]", "IC50": 77}, {"smiles": "CC(=O)Nc1ccc(C(=O)CSc2nnc(-c3ccncc3)n2-c2ccccc2)cc1[N+](=O)[O-]", "note": "[Compound 9]", "IC50": 765}, {"smiles": "CC(=O)Nc1ccc(C(=O)CSc2nnc(-c3ccncc3)n2-c2ccccc2)cc1", "note": "[Compound 10]", "IC50": 297}, {"smiles": "O=C(CSc1nnc(-c2ccncc2)n1-c1ccccc1)c1ccc(F)cc1", "note": "[Compound 11]", "IC50": 268}, {"smiles": "O=C(CSc1nnc(-c2ccncc2)n1-c1ccccc1)c1ccccc1", "note": "[Compound 12]", "IC50": 124}, {"smiles": "O=C(CSc1nnc(-c2ccncc2)n1-c1ccccc1)c1ccc(Cl)cc1Cl", "note": "[Compound 13]", "IC50": 1200}, {"smiles": "O=C(CSc1nnc(-c2ccncc2)n1-c1ccccc1)c1ccc2c(c1)OCCO2", "note": "[Compound 14]", "IC50": 436}, {"smiles": "O=C(CSc1nnc(-c2ccncc2)n1-c1ccccc1)c1ccc2[nH]c(=O)oc2c1", "note": "[Compound 15]", "IC50": 4500}, {"smiles": "COc1ccc(-n2c(SCC(=O)c3ccc4c(c3)OCCO4)nnc2-c2ccncc2)cc1", "note": "[Compound 36]", "IC50": 103}, {"smiles": "COc1ccc(C(=O)CSc2nnc(-c3ccc(OC)cc3)n2-c2ccccc2)cc1", "note": "[Compound 43]", "IC50": 0.0014}]}]}
